Measurements published in US12419307B2, “Mixtures comprising indazole pesticides” (FMC Corporation, priority 2019, dated 2025).
Read-outs that look alike come from different tables or passages of the source.

Columns and labels:
Type in all cases: in vivo
[1] = system: Potato Leafhopper (Empoasca fabae Harris); experiment: Test C: Potato Leafhopper control on bean plants, insect mortality after 6 days; settings: read-out: % Mortality (obs)
Description: (§1) The pest control protection afforded by the mixtures or compositions is not limited, however, to these species. The analysis of enhanced activity between the mixtures or compositions was determined using Colby's equation. The average % mortality data for the test compounds alone were inserted into the Colby's equation. If the observed (obs) average % mortality was higher than “p”, the expected (exp) % mortality, the mixture or composition had enhanced effects. If the observed average % mortality was equal to or lower than the expected mortality, the mixture or composition either had no enhanced effect. For bioassays where insect feeding damage was evaluated, enhanced activity is identified when the observed plant damage is less than the expected plant damage rating; ratings ranged between 0 (no damage) and 10 (dead plant) and each value was converted to a % plant protection. 100−(Obs Plant Damage*10)
For evaluating control of Potato Leafhopper (Empoasca fabae Harris) through contact and/or systemic means, each test unit consisted of a small open container with a 5- to 6-day-old Longio bean plant (primary leaves emerged) inside. White sand was added to the top of the soil, and one of the primary leaves was excised prior to application. Test compounds were formulated and sprayed with 3 replications as described for Test A. After spraying, the test units were allowed to dry for 1 hour before they were infested with 5 potato leafhoppers (18- to 21-day-old adults). A black, screened cap was placed on the top of each container. The test units were held for 6 days in a growth chamber at 19-21° C. and 50-70% relative humidity.

[2] = system: fall armyworm (Spodoptera frugiperda (J. E. Smith)); experiment: Test E: fall armyworm control on corn plants, plant damage rating and mortality after 6 days; settings: Spodoptera frugiperda, 144 h, Table 6e, read-out: Plant Protection (obs)
Description: as §1
For evaluating control of fall armyworm (Spodoptera frugiperda (J. E. Smith)) the test unit consisted of a small open container with a 4-5-day-old corn (maize) plant inside. This was pre-infested with 10-15 1-day-old larvae on a piece of insect diet. Test compounds were formulated and sprayed with 3 replications as described for Test A. After spraying of the formulated test compound, the test units were maintained in a growth chamber for 6 days at 25° C. and 70% relative humidity. Plant feeding damage was then visually assessed based on foliage consumed, and larvae were assessed for mortality. Each test unit was then visually assessed for plant damage and rated 0-10, where 0=undamaged and 10=plant is dead; the results are listed in Tables 6d-i.

[3] = system: Western Flower Thrips (Frankliniella occidentalis Pergande); experiment: Test B: Western Flower Thrips control on bean plants, plant damage rating converted to % plant protection after 7 days; settings: for pest or weed control at 3.18 ppm / pest or weed control at 9.75 ppm: Frankliniella occidentalis, 168 h, read-out: Plant Protection (obs); for Plant Damage (obs): Table 3a; for Plant Damage (obs) / Plant Protection (obs): applied alone
Description: as §1
Thus, a plant given a plant damage rating of 3 out of 10 is equivalent to 70% plant protection In all of these tests, compounds of Formula I are Compounds 1 (Cpd 1), 2 (Cpd2), and 3 (Cpd3) and compounds of Formula II are compounds 4 (Cpd4) and 5 (Cpd 5).
For evaluating control of the Western Flower Thrips (Frankliniella occidentalis Pergande) through contact and/or systemic means, each test unit consisted of a small open container with a 5- to 7-day-old bean (var. Soleil) plant inside.
Test solutions were formulated and sprayed with 3 replications as described for Test A. After spraying, the test units were allowed to dry for 1 hour, 22 to 27 adult thrips were added to each unit and then a black, screened cap was placed on top. The test units were held for 7 days at 25° C. and 45-55% relative humidity. To evaluate the level of plant protection provided by each treatment, each test unit was then visually assessed for plant damage inflicted by insect feeding and rated 0-10, where 0=undamaged and 10=plant is dead; the results are listed in Tables 3a-g.

[4] = system: silverleaf whitefly (Bemisia argentifolii Bellows and Perring); experiment: Test A: silverleaf whitefly control on cotton or soybean plants, spray, insect mortality after 13 days; settings: Bemisia argentifolii, applied alone, read-out: % Mortality (obs)
Description: as §1
For evaluating control of silverleaf whitefly (Bemisia argentifolii Bellows and Perring) through contact and/or systemic means, each test unit consisted of a small open container with a 12- to 14-day-old cotton plant or 5-7 day old soybean plant inside. This was pre-infested by placing test units into cages containing adult whiteflies so that oviposition on the cotton leaves could occur. The adults were removed from the plants with an air-blast nozzle, and the test units were capped. The test units were then stored 2 to 3 days before spraying.
Test compounds were formulated using a solution containing 10% acetone, 90% water and 300 ppm Activator 90@ Spreader Lo-Foam Formula non-ionic surfactant containing alkylarylpolyoxyethylene, free fatty acids, glycols and 2-propanol (Loveland Industries, Inc.) to provide the desired concentration in ppm. Formulated test solutions were then applied in 1 mL volumes through a SUJ2 atomizer nozzle with ⅛ JJ custom body (Spraying Systems Co.) positioned 1.27 cm (0.5 inches) above the top of each test unit.
The results for all experimental compositions in this test were replicated three times. After spraying of the formulated test composition, each test unit was allowed to dry for 1 hour and the cap removed. The test units were held for 13 days in a growth chamber at 28° C. and 50-70% relative humidity.

[5] = system: diamondback moth (Plutella xylostella L.); experiment: Test E: diamondback moth control on mustard plants, contact and/or systemic, plant damage rating after 6 days
Description: as §1
For evaluating control of diamondback moth (Plutella xylostella L.) through contact and/or systemic means, each test unit consisted of a small open container with a 10- to 12-day-old mustard plant inside. Test compounds were formulated and sprayed with 3 replications as described for Test A. After spraying, the test units were allowed to dry for 1 hour before they were infested with 30-50 neonate larvae. A black, screened cap was placed on the top of each container. The test units were held for 6 days in a growth chamber at 24-25° C. and 70% relative humidity. Each test unit was then visually assessed for plant damage and rated 0-10, where 0=undamaged and 10=plant is dead; the results are listed in Tables 6a-b.

With `CSCC(C)(C)NC(=O)c1ccc(F)c2nn(-c3cccnc3)cc12` [Cpd 1, N-[1,1-dimethyl-2-(methylthio)ethyl]-7-fluoro-2-(3-pyridinyl)-2H-indazole-4-carboxamide] the mortality at 50 ppm ([1]; Table 4a) was 60%, the mortality at 250 ppm ([1]; Table 4a) was 35.7% and the mortality at 50 ppm ([1]; Table 4b) was 20%. It also gave a mortality at 250 ppm ([1]; Table 4b) of 6.7%, a mortality at 50 ppm ([1]; Table 4c) of 6.7% and a mortality at 250 ppm ([1]; Table 4c) of 33.3%. For the same molecule, the pest or weed control at 50 ppm ([2]; 50 ppm) was 0%, the pest or weed control at 250 ppm ([2]; 250 ppm) was 0% and the pest or weed control at 3.18 ppm ([3]; Table 3e, 3.18 ppm) was 76.7%. The pest or weed control at 9.75 ppm ([3]; Table 3e, 9.75 ppm) was 66.7%, the pest or weed control at 3.18 ppm ([3]; Table 3f, 3.18 ppm) was 33.3% and the pest or weed control at 9.75 ppm ([3]; Table 3f, 9.75 ppm) was 80%. The pest or weed control at 3.18 ppm ([3]; Table 3g, 3.18 ppm) was 10%, the pest or weed control at 9.75 ppm ([3]; Table 3g, 9.75 ppm) was 76.7% and the pest or weed control at 3.18 ppm ([3]; Table 3d, 3.18 ppm) was 63.3%. The pest or weed control at 9.75 ppm ([3]; Table 3d, 9.75 ppm) was 90%, the “Plant Damage (obs)” value ([3]; 3.18 ppm) was 33.3% and the “Plant Damage (obs)” value ([3]; 9.75 ppm) was 73.3%. The “Plant Protection (obs)” value ([3]; Table 3b, 3.18 ppm) was 73.3%, the “Plant Protection (obs)” value ([3]; Table 3b, 9.75 ppm) was 76.7% and the “Plant Protection (obs)” value ([3]; Table 3c, 3.18 ppm) was 63.3%. The “Plant Protection (obs)” value ([3]; Table 3c, 9.75 ppm) was 83.3%, the mortality at 50 ppm ([4]; 2 h, Table 2h) was 2.4% and the mortality at 250 ppm ([4]; 2 h, Table 2h) was 7.6%. For the same molecule, the mortality at 50 ppm ([4]; 48 h, Table 2d) was 0%, the mortality at 250 ppm ([4]; 48 h, Table 2d) was 1.3% and the mortality at 50 ppm ([4]; Table 2a) was 0%. The mortality at 250 ppm ([4]; Table 2a) was 18.8%, the mortality at 50 ppm ([4]; Table 2b) was 80% and the mortality at 250 ppm ([4]; Table 2b) was 0%. It also gave a mortality at 50 ppm ([4]; Table 2c) of 0%, a mortality at 250 ppm ([4]; Table 2c) of 3.1% and a mortality at 50 ppm ([4]; Table 2e) of 0%. For the same molecule, the mortality at 250 ppm ([4]; Table 2e) was 2.2%, the mortality at 50 ppm ([4]; Table 2f) was 9.3% and the mortality at 250 ppm ([4]; Table 2f) was 0%. The mortality at 50 ppm ([4]; Table 2g) was 2.6%, the mortality at 250 ppm ([4]; Table 2g) was 2.1% and the “Plant Protection (obs)” value ([5]; Table 6a, 50 ppm) was 0.0. The “Plant Protection (obs)” value ([5]; Table 6a, 250 ppm) was 0.0, the “Plant Protection (obs)” value ([5]; Table 6b, 50 ppm) was 0.0 and the “Plant Protection (obs)” value ([5]; Table 6b, 250 ppm) was 0.0.
